Experimental data reported in US20240423937A1, “METHODS OF TREATING PAIN AND USES THEREOF” (University of Tennessee Research Foundation, priority 2021, published 2024).
Entries after “also recorded” stand apart in the source; their conditions may differ. Like-named read-outs stand apart in the source and are kept apart here.

How the values were obtained:
Dutch belted rabbits = assay: Single topical dose IOP lowering in Dutch belted rabbits; format: in vivo, rabbit; conditions: single drop
Protocol: Non-limiting exemplary data: We made a discovery that can make PRG effective in treating vision loss in glaucoma. In addition to its presence in the anterior segment (FIG. 2), CACNA2D1 is also localized to RGCs (FIGS. 3A&B), as well as the ON (FIG. 3C). […] At 24 hours after dosing, IOP is still reduced by >20%.
Moreover, the combined effect of all three layers of our W/O/W ME is critical for enhancing the efficacy of PRG. […] Using this same model, we will evaluate our optimized formulations from Test 1.1.
Research Design and Methods: Dutch belted rabbits (Envigo Rabbitry; formerly Covance) will be used in this single-dose design study. Rabbits from this rabbitry can have higher baseline IOP values than those purchased from other rabbitries. Rabbits (equally balanced between males and females) will be acclimated to handling and IOP measurements for at least seven days before initiation of the study. Slit-lamp biomicroscopic and fundoscopic examinations will be performed before and after the study. Our top three formulations from Test 1.1 will be tested in this model using our methods^12. The IOP of both eyes will be measured using a rebound tonometer (Tono-Pen AVIA Vet, Reichert) immediately before the formulation application (baseline, 8 am) and at hourly time intervals after application until the IOP returns to baseline. Using a sterile micropipette tip, thirty microliters of the formulation containing PRG ME or blank control will be instilled topically into one eye of each rabbit, while the fellow eye will receive the formulation vehicle, and therefore serve as controls. Rabbits will be dosed daily at 8 am for 21 days, and IOP collected at 8 am (immediately pre-dosing) and at the time at which the maximum IOP reduction is measured (Tmax) using our methods^12. Curves similar to FIG. 16 will be generated. Biocompatibility of the antioxidant-containing formulations will be assessed using with slit lamp biomicroscopy as in FIG. 17. […]

BXD29 mice = assay: Daily topical dosing of BXD29 mice for 6 weeks (IOP, optic nerve axons); format: in vivo, mouse
Source text: Objective: An obstacle in this study is the in vivo assessment of any direct neuroprotective effects of PRG that are independent of IOP lowering. […] These characteristics make BXD29 ideal for evaluating the direct neuroprotective properties of PRG on RGCs by eliminating indirect effects that would be mediated through IOP reduction.
We have evidence to show, without wishing to be bound by theory, that topical dosing with our PRG ME is neuroprotective to RGC axons in the ON. We dosed BXD29 mice daily with PRG ME beginning at 5 weeks of age (FIG. 9A) before ON degeneration was marked. […] In contrast, ON from mice dosed with unmedicated ME had loss of axon profiles and increased areas of debris (FIG. 9C). The studies will evaluate the role of PRG as a RGC neuroprotectant and define its cellular mechanism of action.

[1] = Topical pregabalin IOP lowering, aqueous / without microemulsion; format: in vivo
Source text: As a bidirectional component of our study, we corroborated an imputed single-nucleotide polymorphism (SNP) in CACNA2D1 within a human POAG population. Immunohistochemistry studies in humans, rabbits, and mice indicate that CACNA2D1 is located in the ciliary body (CB) and outflow structures (FIG. 2), both of which can influence IOP. […] These findings are consistent with earlier findings that implicated Ca^2+ flux as a regulator of IOP through actions in both the CB and outflow structures^13,14. This is highly significant because few approved IOP-lowering drugs act on both the inflow and outflow facilities, and that we can be able to clarify the implicated but yet unproven role of Ca^2+ flux on inflow and outflow control. On the therapeutic side, because the amplitude and duration of PRG-mediated IOP reduction in our studies were limited (17% IOP reduction that returns to baseline at 6 hr)^15, we then engineered a new topical extended release microemulsion (ME) formulation to increase PRG efficacy and duration of action^12. […] These findings indicate the development of PRG as a new class of glaucoma therapeutics with a MOA distinct from current approved IOP-lowering medications.
However, the amplitude and duration of response were limited and unpractical for clinical use. To increase the efficacy of PRG as an IOP-lowering drug, we engineered a new microemulsion topical formulation^12. Our formulation was designed as a water-in-oil-in water microemulsion with 40% and 60% of the PRG in the innermost and outermost aqueous phases, respectively. Compartmentalization of PRG in two aqueous phases supports both a rapid onset and long duration of IOP-lowering action. Drug release from the outermost aqueous phase is fast, allowing for rapid IOP reduction. To be released from the innermost aqueous phase, however, PRG must pass through two interfaces—the inner water/oil interface and the outer oil/water interface—after which it must diffuse through the viscous polymer solution that constitutes the outmost aqueous phase of our multilayered ME (FIG. 12). Collectively the movement across both interfaces slows movement of PRG from our formulation and supports the extended IOP-lowering effect. After diffusion from the outermost polymer, PRG is available for absorption through the cornea. To ensure that the formulation will remain on the corneal surface for enough time to allow for the sustained release of the drug, the outermost hydrogel layer is prepared from Carbopol 981, which has excellent bio-adhesive properties.

CACNA2D1 = CACNA2D1 (Homo sapiens, UniProt P54289); conditions: cited from earlier work
Chain of CACNA2D1 (P54289 25-1103): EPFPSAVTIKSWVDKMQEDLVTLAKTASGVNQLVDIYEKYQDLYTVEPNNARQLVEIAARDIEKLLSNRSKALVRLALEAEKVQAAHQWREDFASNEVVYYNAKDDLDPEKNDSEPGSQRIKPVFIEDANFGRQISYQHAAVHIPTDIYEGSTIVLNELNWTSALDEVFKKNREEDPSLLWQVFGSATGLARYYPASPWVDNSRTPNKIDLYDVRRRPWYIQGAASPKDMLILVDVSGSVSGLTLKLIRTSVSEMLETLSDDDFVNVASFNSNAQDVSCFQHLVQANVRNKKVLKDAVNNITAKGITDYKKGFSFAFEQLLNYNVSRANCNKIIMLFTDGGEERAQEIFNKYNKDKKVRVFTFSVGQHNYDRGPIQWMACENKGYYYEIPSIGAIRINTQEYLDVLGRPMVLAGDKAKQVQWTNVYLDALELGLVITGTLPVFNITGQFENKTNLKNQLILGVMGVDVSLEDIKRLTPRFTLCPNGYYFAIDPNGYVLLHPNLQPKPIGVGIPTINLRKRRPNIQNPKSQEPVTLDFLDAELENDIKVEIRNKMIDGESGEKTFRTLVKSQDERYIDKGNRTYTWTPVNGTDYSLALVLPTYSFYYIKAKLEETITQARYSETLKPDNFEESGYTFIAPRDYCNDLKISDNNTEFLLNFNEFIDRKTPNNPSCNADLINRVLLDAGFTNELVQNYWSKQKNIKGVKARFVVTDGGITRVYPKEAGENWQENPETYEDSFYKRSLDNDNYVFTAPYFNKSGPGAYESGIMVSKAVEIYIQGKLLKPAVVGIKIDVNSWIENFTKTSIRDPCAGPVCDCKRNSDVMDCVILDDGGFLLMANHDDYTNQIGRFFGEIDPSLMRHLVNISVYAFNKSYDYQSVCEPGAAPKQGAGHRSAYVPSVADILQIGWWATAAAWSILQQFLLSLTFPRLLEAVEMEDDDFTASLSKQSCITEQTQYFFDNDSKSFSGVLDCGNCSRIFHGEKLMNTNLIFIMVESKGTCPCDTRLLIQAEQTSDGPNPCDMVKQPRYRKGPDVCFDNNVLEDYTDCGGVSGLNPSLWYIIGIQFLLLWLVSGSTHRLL

CACNA2D2 = CACNA2D2 (Homo sapiens, UniProt Q9NY47); conditions: cited from earlier work
Chain of CACNA2D2 (Q9NY47 19-1150, species assumed): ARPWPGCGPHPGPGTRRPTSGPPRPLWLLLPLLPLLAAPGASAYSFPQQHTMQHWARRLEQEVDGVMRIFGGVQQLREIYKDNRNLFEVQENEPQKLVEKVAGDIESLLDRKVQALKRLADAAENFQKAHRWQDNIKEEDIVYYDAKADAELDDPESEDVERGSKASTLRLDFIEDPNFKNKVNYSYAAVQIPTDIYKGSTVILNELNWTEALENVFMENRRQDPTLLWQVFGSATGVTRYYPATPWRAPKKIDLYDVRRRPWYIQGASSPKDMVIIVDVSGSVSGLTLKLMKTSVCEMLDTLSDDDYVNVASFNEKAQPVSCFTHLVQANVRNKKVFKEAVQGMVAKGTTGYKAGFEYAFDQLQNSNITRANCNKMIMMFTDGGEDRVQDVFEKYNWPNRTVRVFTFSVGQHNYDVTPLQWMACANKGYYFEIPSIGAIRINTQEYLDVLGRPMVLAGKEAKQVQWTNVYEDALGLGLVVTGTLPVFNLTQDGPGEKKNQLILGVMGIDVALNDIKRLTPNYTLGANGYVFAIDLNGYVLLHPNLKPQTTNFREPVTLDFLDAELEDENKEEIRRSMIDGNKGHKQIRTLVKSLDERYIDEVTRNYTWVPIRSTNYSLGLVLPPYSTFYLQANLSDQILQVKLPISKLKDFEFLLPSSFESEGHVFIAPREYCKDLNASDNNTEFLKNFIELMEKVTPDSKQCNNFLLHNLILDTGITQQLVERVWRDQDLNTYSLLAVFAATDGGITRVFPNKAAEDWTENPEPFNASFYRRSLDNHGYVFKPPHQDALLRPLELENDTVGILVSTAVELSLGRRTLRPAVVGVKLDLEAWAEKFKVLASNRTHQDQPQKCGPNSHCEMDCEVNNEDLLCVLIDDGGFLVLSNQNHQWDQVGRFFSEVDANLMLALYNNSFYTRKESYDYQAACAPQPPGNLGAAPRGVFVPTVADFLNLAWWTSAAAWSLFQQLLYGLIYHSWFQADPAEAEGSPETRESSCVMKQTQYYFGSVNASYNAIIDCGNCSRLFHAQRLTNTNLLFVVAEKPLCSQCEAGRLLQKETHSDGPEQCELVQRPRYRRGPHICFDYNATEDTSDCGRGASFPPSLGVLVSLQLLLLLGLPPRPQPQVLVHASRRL

[2] = test system: γ-aminobutyric acid (GABA) receptors; conditions: cited from earlier work
[3] = not told; cited from earlier work
[4] = topical aqueous / initial PRG formulation
[5] = with versus without the microemulsion, species not stated

CC(C)C[C@H](CN)CC(=O)O [pregabalin]
AUC of IOP reduction (Dutch belted rabbits): 38 mmHg·hr
maximal % reduction in IOP (Dutch belted rabbits): 30%
time at which IOP returns to baseline (Dutch belted rabbits): 10 h
optic nerve axon preservation (BXD29 mice; daily topical dosing for 6 weeks from 5 weeks of age): prevents degeneration of axons in the ON even in the absence of a reduction in IOP
IOP response of BXD29 mice (BXD29 mice; topical, up to 6 weeks of daily dosing): unresponsive
IOP reduction [1, 4]: 17%
return of IOP to baseline after dosing [1, 4]: 6 h
dose dependence of IOP lowering ([1]; topical dosing): dose dependent manner
IOP lowering [1, 5]: about 20%
return of IOP to baseline after dosing [1, 5]: 8 to 10 h
affinity / specificity for CACNA2D1 (CACNA2D1): antagonist with specificity for CACNA2D1 and high specificity for CACNA2D1 and bind
affinity / specificity for CACNA2D1 (CACNA2D1; listed as PRG): high affinity and specificity; also recorded: binds with high affinity
affinity / specificity for CACNA2D1 (CACNA2D1; listed as Pregabalin): high affinity and specificity
binding to CACNA2D2 (CACNA2D2): bind
binding to GABA receptors [2]: does not bind
membrane permeability [3]: high membrane permeability
